Results as given in ChEMBL document CHEMBL1201862, “PubChem BioAssay data set” (2004).
Calls of active or inactive are those of the source. No stated cut-off is given here; in the data, actives have a measured IC50 and inactives only a lower limit.

Target: Envelope glycoprotein gp160 (Human immunodeficiency virus 1, UniProt Q6QLK5)
Experiment: inhibitors of HIV fusion peptide binding, primary screen, biochemical, uHTS, fluorescence dequenching (AID 1986)

Chain of Envelope glycoprotein gp160 (Q6QLK5 whole entry, the tested form may be a part): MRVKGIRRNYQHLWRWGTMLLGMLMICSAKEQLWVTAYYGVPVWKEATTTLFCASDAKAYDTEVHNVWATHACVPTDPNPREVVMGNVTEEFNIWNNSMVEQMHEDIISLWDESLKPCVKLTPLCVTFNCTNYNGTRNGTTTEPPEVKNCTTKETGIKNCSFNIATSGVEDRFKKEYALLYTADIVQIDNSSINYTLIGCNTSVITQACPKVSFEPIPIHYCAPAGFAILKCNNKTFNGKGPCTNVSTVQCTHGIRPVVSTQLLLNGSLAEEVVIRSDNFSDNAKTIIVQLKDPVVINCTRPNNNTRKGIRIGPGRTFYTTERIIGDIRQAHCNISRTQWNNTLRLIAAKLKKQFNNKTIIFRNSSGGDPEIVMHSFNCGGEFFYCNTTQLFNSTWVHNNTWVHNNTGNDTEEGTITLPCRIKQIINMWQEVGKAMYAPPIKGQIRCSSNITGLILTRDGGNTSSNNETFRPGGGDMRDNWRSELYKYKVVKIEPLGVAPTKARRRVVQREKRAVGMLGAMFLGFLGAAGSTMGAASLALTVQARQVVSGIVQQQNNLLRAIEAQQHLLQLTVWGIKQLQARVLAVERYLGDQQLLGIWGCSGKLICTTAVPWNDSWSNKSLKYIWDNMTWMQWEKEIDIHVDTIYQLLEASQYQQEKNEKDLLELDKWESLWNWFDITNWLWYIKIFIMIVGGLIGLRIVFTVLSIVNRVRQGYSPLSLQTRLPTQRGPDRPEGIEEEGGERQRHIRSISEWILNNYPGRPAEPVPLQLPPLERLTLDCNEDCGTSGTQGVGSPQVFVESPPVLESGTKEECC

In the case of `O=S(=O)(Nc1nc(-c2sccc2Cl)cs1)c1cc(Cl)ccc1Cl`, the IC50 is reported as 8.21 µM (active).
